Source: patent US12721823B2, “Methods and compositions for treatment of low circulating testosterone conditions” (University of Florida Research Foundation, Inc., priority 2021, dated 2026)

What was measured:
Format in all cases: in vivo, rat
Sprague-Dawley rats [1] = assay: Acute serum corticosterone 1 h after last sevoflurane exposure (ELISA); details: sevoflurane 3 h on P56, P58, P60, 1 h after last exposure, vs control
Procedure: Male and female rats in Generation 1 (G1) underwent anesthesia on postnatal days 56, 58 and 60. During this period, rats were held in a temperature-controlled chamber (+37° C.) with a continuous supply of 30% oxygen in air (1.5 L/min) during anesthesia-6% sevoflurane for 3 min for anesthesia induction and 2.1% sevoflurane for 177 min for anesthesia maintenance (the Sevoflurane group). Gas monitoring was performed using a calibrated Datex side stream analyzer (Datex-Ohmeda, Helsinki, Finland), which samples from the animal chamber interior. Rats in the G1 control group (Control) were not subjected to anesthesia. A subset of the rats in the G1 Control and Sevoflurane groups was sacrificed 1 h after the last exposure to sevoflurane (or equivalent timepoint in the Control group) to collect blood and brain tissue samples. FIG. 1 provides a schematic of experimental design. The remaining Control and Sevoflurane G1 male and female rats were mated on P85 to produce offspring (generation 2, G2). […] Serum corticosterone was measured using commercial ELISA kits (Cayman Chemical Company, Ann Arbor, MI, USA) according to the manufacturer's instructions. […] (FIGS. 2C-2F) Representative confocal images and quantitative analysis of the KCC2 immunoreactivity in the paraventricular nucleus (PVN) of the hypothalamus of the control and sevoflurane-exposed male (FIGS. 2C, 2E) and female (FIGS. 2D, 2F) rats. […]

Sprague-Dawley rats [2] = assay: Morris water maze (MWM) test
Description: Sixty-four G1 rats (32 control and 32 sevoflurane exposed) and 122 G2 rats, which were not exposed to sevoflurane anesthesia and were subjected to animal facility rearing only, were studied. The G1 rats were sequentially evaluated in the EPM starting on ~P125, PPI of the acoustic startle response on ~P135 and MWM starting ~on P145 (FIG. 1). One half of these animals were sacrificed on ≥P160 to collect trunk blood, brain and testis and ovarian tissues for further analyses. The rest of these animals were physically restrained for 30 min on ≥P160 to measure corticosterone responses, followed by collection of tissue samples (as above) for further analyses. The G2 rats were evaluated in the EPM starting on P60 and PPI of startle on P70 (FIG. 1). One half of these animals were sacrificed on ≥P95 to collect trunk blood and brain tissue samples for further analyses, and the rest of these animals were tested for the corticosterone responses to physical restraint for 30 min on ≥P95 before collecting the trunk blood and brain tissue samples.
The MWM tests were run using a MWM apparatus and data were analyzed using a computer-based video tracking system (Water 2020; HVS Image) as previously described. 5

Sprague-Dawley rats [3] = assay: Basal and stress-induced (restraint) serum corticosterone, HPA axis activity; details: for serum levels of corticosterone before and after physical restraint: all experimental groups
Description: Sixty-four G1 rats (32 control and 32 sevoflurane exposed) and 122 G2 rats, which were not exposed to sevoflurane anesthesia and were subjected to animal facility rearing only, were studied. The G1 rats were sequentially evaluated in the EPM starting on ~[…], PPI of the acoustic startle response on ~[…] and MWM starting ~on […] (FIG. 1). One half of these animals were sacrificed on ≥[…] to collect trunk blood, brain and testis and ovarian tissues for further analyses. The rest of these animals were physically restrained for 30 min on ≥[…] to measure corticosterone responses, followed by collection of tissue samples (as above) for further analyses. The G2 rats were evaluated in the EPM starting on P60 and PPI of startle on P70 (FIG. 1). One half of these animals were sacrificed on ≥[…] to collect trunk blood and brain tissue samples for further analyses, and the rest of these animals were tested for the corticosterone responses to physical restraint for 30 min on ≥[…] before collecting the trunk blood and brain tissue samples. Blood samples (~300 μl) were collected using the “tail clip” method at rest and 10, 60, and 120 min after the restraint. Physical restraint was administered using rodent holders (Kent scientific Corporation, Torrington, CT). Serum corticosterone was measured using commercial ELISA kits (Cayman Chemical Company, Ann Arbor, MI, USA) according to the manufacturer's instructions.

With `FCOC(C(F)(F)F)C(F)(F)F` [sevoflurane, 1,1,1,3,3,3-hexafluoro-2-(fluoromethoxy)propane] the “serum levels of corticosterone” value (Sprague-Dawley rats [1]; G1 female rats) was “significantly increased”, the “serum levels of corticosterone” value (Sprague-Dawley rats [1]; G1 male rats) was “significantly increased” and the MWM tests (Sprague-Dawley rats [2]; G1 female rats) was “no significant group effects”. For the same molecule, the MWM escape latencies (Sprague-Dawley rats [2]; G1 male rats, 5-day training period) was “no significant between-subjects effect”, the “crossings over the escape platform location, MWM” value (Sprague-Dawley rats [2]; G1 male rats, probe test) was “fewer crossings” and the “time in the target quadrant of the MWM” value (Sprague-Dawley rats [2]; G1 male rats, probe test) was “significantly less time”. For the same molecule, the serum corticosterone levels (Sprague-Dawley rats [3]; G1 female rats, before and after restraint, vs control) was “no difference”, the serum corticosterone (Sprague-Dawley rats [3]; G1 male rats, 10 min after restraint, vs control) was “higher levels” and the “total corticosterone responses (AUCg)” value (Sprague-Dawley rats [3]; G1 male rats, 30 min restraint on ≥P160, vs control) was “significantly higher”. The serum corticosterone (Sprague-Dawley rats [3]; G1 male rats, 60 min after restraint, vs control) was “higher levels”, the serum corticosterone (Sprague-Dawley rats [3]; G1 male rats, 120 min post restraint, vs control) was “not different” and the serum corticosterone (Sprague-Dawley rats [3]; G1 male rats, before the restraint, vs control) was “not different”. For the same molecule, the “serum levels of corticosterone before and after physical restraint” value (Sprague-Dawley rats [3]; G2 female rats) was “no differences” and the “serum levels of corticosterone before and after physical restraint” value (Sprague-Dawley rats [3]; G2 male rats) was “no differences”.
